Data from patent US20240148821A1, “PHARMACEUTICAL USE OF CYCLIC PEPTIDE COMPOUND” (CHUGAI SEIYAKU KABUSHIKI KAISHA, priority 2021, published 2024).
Bridge positions count the residues as written; N and C are the ends. Square brackets hold non-standard residues; d marks the D form. Peptide text beside a SMILES is read from it. * marks the point of attachment. hPhe(3,5-F2-4-CF3) = N[C@@H](CCc1cc(F)c(C(F)(F)F)c(F)c1)C(=O)O; hPhe(3-Cl-4-CF3) = N[C@@H](CCc1ccc(C(F)(F)F)c(Cl)c1)C(=O)O; NMePhe(4-CF3) = CN[C@@H](Cc1ccc(C(F)(F)F)cc1)C(=O)O; Phe(2-F,5-Br) = N[C@@H](Cc1cc(Br)ccc1F)C(=O)O; 3Oxa8azabicyclo(3.2.1)octane = C1CC2COCC1N2*; NMeAbu(4,4,4-F3) = CN[C@@H](CC(F)(F)F)C(=O)O; NMeAla(cPent) = CN[C@@H](CC1CCCC1)C(=O)O; NMeGly(cPent) = CN[C@H](C(=O)O)C1CCCC1; Phe(3-I) = N[C@@H](Cc1cccc(I)c1)C(=O)O; Pro(4,4-F2) = O=C(O)[C@@H]1CC(F)(F)CN1; NMeY = CN[C@@H](Cc1ccc(O)cc1)C(=O)O; NMeCha = CN[C@@H](CC1CCCCC1)C(=O)O; NMeChg = CN[C@H](C(=O)O)C1CCCCC1; NMeI = CC[C@H](C)[C@H](NC)C(=O)O; NMeD = CN[C@@H](CC(=O)O)C(=O)O; NMeL = CN[C@@H](CC(C)C)C(=O)O; NMeNva = CCC[C@H](NC)C(=O)O; NMeAbu = CC[C@H](NC)C(=O)O; Morpholide = C1CN(*)CCO1; NMeA = CN[C@@H](C)C(=O)O; NMeAib = CNC(C)(C)C(=O)O; Nle = CCCC[C@H](N)C(=O)O; Piperidide = C1CCN(*)CC1; Pra = C#CC[C@H](N)C(=O)O; Pyrrolidide = C1CCN(*)C1; Ac5c = NC1(C(=O)O)CCCC1; Aze = O=C(O)[C@@H]1CCN1; Ac4c = NC1(C(=O)O)CCC1; Sar = CNCC(=O)O

System: Human pancreatic cancer cell line AsPC-1 (G12D mutation Kras)
Assay: AsPC-1 cell growth inhibition (AsPC-1 CGI)
Format: cell-based
Settings: read-out: AsPC-1 cell growth inhibition, 50% growth inhibitory concentration (IC50 value); 96 hours, CellTiter-Glo, values classified in ranges
Description: Test compounds were serially dilated with dimethyl sulfoxide, and 200 nL was then dispensed to a U-bottom 96-well plate using Labcyte Echo. […] The cell suspension was dispensed to a. plate containing a test compound at 100 μL per well and incubated at 37° C. in a 5% carbon dioxide gas incubator. 96 hours later, 80 μL of CellTiter-Glo (Promega) was added to each well and fluorescence was measured.

`CCC[C@H]1C(=O)N[C@@H]([C@@H](C)CC)C(=O)N(C)CC(=O)N(C)CC(=O)N(C)[C@@H](CC2CCCCC2)C(=O)N(C)CC(=O)N[C@@H](CCc2cc(F)c(C(F)(F)F)c(F)c2)C(=O)N2CC(F)(F)C[C@H]2C(=O)NC2(CCCC2)C(=O)N(C)[C@@H](C2CCCCC2)C(=O)N(C)[C@H](C(=O)N2CCCC2)CC(=O)N1C` [Compound 1160] ([NMeNva]I[Sar][Sar][NMeCha][Sar][hPhe(3,5-F2-4-CF3)][Pro(4,4-F2)][Ac5c][NMeChg][NMeD]-Pyrrolidide; lactam N-11) and `CC[C@H](C)[C@@H]1NC(=O)[C@H](CC(C)C)N(C)C(=O)C[C@@H](C(=O)N2CCCC2)N(C)C(=O)[C@H](C2CCCC2)N(C)C(=O)C2(CCCC2)NC(=O)[C@@H]2CC(F)(F)CN2C(=O)[C@H](CCc2cc(F)c(C(F)(F)F)c(F)c2)NC(=O)CN(C)C(=O)[C@H](CC2CCCCC2)N(C)C(=O)CN(C)C(=O)CN(C)C1=O` [Compound 1166] ([NMeL]I[Sar][Sar][NMeCha][Sar][hPhe(3,5-F2-4-CF3)][Pro(4,4-F2)][Ac5c][NMeGly(cPent)][NMeD]-Pyrrolidide; lactam N-11) cannot be ordered by IC50: no more than 20 nM for the first, no more than 20 nM for the second.

`CC[C@H](C)[C@@H]1NC(=O)[C@H](CC(C)C)N(C)C(=O)C[C@@H](C(=O)N2CCCC2)N(C)C(=O)[C@H](C2CCCCC2)N(C)C(=O)C2(CCC2)NC(=O)[C@@H]2CC(F)(F)CN2C(=O)[C@H](CCc2ccc(C(F)(F)F)c(Cl)c2)NC(=O)CN(C)C(=O)[C@H](CC2CCCCC2)N(C)C(=O)CN(C)C(=O)CN(C)C1=O` [Compound 1163] ([NMeL]I[Sar][Sar][NMeCha][Sar][hPhe(3-Cl-4-CF3)][Pro(4,4-F2)][Ac4c][NMeChg][NMeD]-Pyrrolidide; lactam N-11) and `CC[C@H](C)[C@@H]1NC(=O)[C@H](CC(C)C)N(C)C(=O)C[C@@H](C(=O)N2C3CCC2COC3)N(C)C(=O)[C@H](C2CCCCC2)N(C)C(=O)C2(CCCC2)NC(=O)[C@@H]2CC(F)(F)CN2C(=O)[C@H](CCc2ccc(C(F)(F)F)c(Cl)c2)NC(=O)CN(C)C(=O)[C@H](CC2CCCCC2)N(C)C(=O)CN(C)C(=O)CN(C)C1=O` [Compound 1179] ([NMeL]I[Sar][Sar][NMeCha][Sar][hPhe(3-Cl-4-CF3)][Pro(4,4-F2)][Ac5c][NMeChg][NMeD]-{3Oxa8azabicyclo(3.2.1)octane}; lactam N-11) cannot be ordered by IC50: no more than 20 nM for the first, no more than 20 nM for the second.

`CC[C@H](C)[C@@H]1NC(=O)[C@H](CC(C)C)N(C)C(=O)C[C@@H](C(=O)N2CCCC2)N(C)C(=O)[C@H](C2CCCCC2)N(C)C(=O)C2(CCC2)NC(=O)[C@@H]2CCCN2C(=O)[C@H](CCc2cc(F)c(C(F)(F)F)c(F)c2)NC(=O)CN(C)C(=O)[C@H](CC2CCCCC2)N(C)C(=O)CN(C)C(=O)CN(C)C1=O` [Compound 1165] ([NMeL]I[Sar][Sar][NMeCha][Sar][hPhe(3,5-F2-4-CF3)]P[Ac4c][NMeChg][NMeD]-Pyrrolidide; lactam N-11) and `CC[C@H](C)[C@@H]1NC(=O)[C@H](CC2CCCC2)N(C)C(=O)C[C@@H](C(=O)N2CCCC2)N(C)C(=O)[C@H]([C@@H](C)CC)N(C)C(=O)C2(CCCC2)NC(=O)[C@@H]2CCCN2C(=O)[C@H](CCc2ccc(C(F)(F)F)c(Cl)c2)NC(=O)CN(C)C(=O)[C@H](Cc2ccc(C(F)(F)F)cc2)N(C)C(=O)[C@@H]2CCN2C(=O)[C@H](C)N(C)C1=O` [Compound 1183] ([NMeAla(cPent)]I[NMeA][Aze][NMePhe(4-CF3)][Sar][hPhe(3-Cl-4-CF3)]P[Ac5c][NMeI][NMeD]-Pyrrolidide; lactam N-11) cannot be ordered by IC50: no more than 20 nM for the first, no more than 20 nM for the second.

`C#CC[C@@H]1NC(=O)[C@H](Cc2cccc(I)c2)NC(=O)CN(C)C(=O)[C@H](Cc2ccc(OC)cc2)N(C)C(=O)CN(C)C(=O)CN(C)C(=O)[C@H]([C@@H](C)CC)NC(=O)[C@H](CC(C)C)N(C)C(=O)C[C@@H](C(=O)N2CCCCC2)N(C)C(=O)[C@H](CC(C)C)NC(=O)C(C)(C)N(C)C1=O` [Compound 1169] ([NMeL]I[Sar][Sar][NMeY](Me)[Sar][Phe(3-I)][Pra][NMeAib]L[NMeD]-Piperidide; lactam N-11) and `CCCC[C@@H]1NC(=O)[C@H](Cc2cc(Br)ccc2F)NC(=O)CN(C)C(=O)[C@H](Cc2ccc(OC)cc2)N(C)C(=O)[C@@H]2CCN2C(=O)[C@H](C)N(C)C(=O)[C@H]([C@@H](C)CC)NC(=O)[C@H](CC)N(C)C(=O)C[C@@H](C(=O)N2CCCCC2)N(C)C(=O)[C@H](CC(C)C)NC(=O)C(C)(C)N(C)C1=O` [Compound 1177] ([NMeAbu]I[NMeA][Aze][NMeY](Me)[Sar][Phe(2-F,5-Br)][Nle][NMeAib]L[NMeD]-Piperidide; lactam N-11) cannot be ordered by IC50: greater than 500 nM for the first, greater than 500 nM for the second.

Work on `CC[C@H](C)[C@@H]1NC(=O)[C@H](CC(F)(F)F)N(C)C(=O)C[C@@H](C(=O)N2CCOCC2)N(C)C(=O)[C@H](C2CCCCC2)N(C)C(=O)C2(CCCC2)NC(=O)[C@@H]2CC(F)(F)CN2C(=O)[C@H](CCc2ccc(C(F)(F)F)c(Cl)c2)NC(=O)CN(C)C(=O)[C@H](Cc2ccc(C(F)(F)F)cc2)N(C)C(=O)CN(C)C(=O)CN(C)C1=O` [Compound 1182] ([NMeAbu(4,4,4-F3)]I[Sar][Sar][NMePhe(4-CF3)][Sar][hPhe(3-Cl-4-CF3)][Pro(4,4-F2)][Ac5c][NMeChg][NMeD]-Morpholide; lactam N-11) yielded an IC50 of no more than 20 nM.
